Laboratory results as given in article PMC7854751, “Estimation of radiation dose from ingested tritium in humans by administration of deuterium-labelled compounds and food” (Scientific Reports, 2021).
Where “and” joins values, the source holds several entries; their conditions need not be identical. Equal entries are not always repeated. Where two headings read alike, the source gives them in different places. Marks after values point to notes of the source that are not given here.

Tests used:
[1] = intravenous injection ref 28; cited from earlier work
[2] = parameters: method as in PMID 32424291; settings: cited from earlier work; for d1, ratio of organic compounds to inorganic compounds immediately after administration: 13C-labelled compound experiments, mean ± standard deviation ref 31
[3] = D/H ratios in urine after oral administration of D-labelled compounds and soybean, OBD metabolic model fit; type: in vivo, human
Procedure: (§1) The total number of volunteers was 42, although some dropped out of the experiment, for various reasons. The data from these volunteers were eliminated. This study lasted 4 years; administration experiments were conducted from September to January, and each volunteer participated in one of the 4 years. […]
All D-labelled and ^13C-labelled compounds were purchased from Cambridge Isotopes, Inc. (Tewksbury). In each D-labelled molecule, hydrogen bound to carbon was uniformly replaced by D. Such D is not exchangeable to hydrogen in free body water after administration until it is metabolised to HDO, and is called non-exchangeable OBD (Nx-OBD). Exchangeable hydrogen, which was not bound to carbon, such as hydroxyl group hydrogen, was not replaced by D. In each ^13C-labelled compound, ^13C was uniformly labelled.
The D-labelled soybean was harvested three times. The harvested soybeans were boiled, freeze-dried, and then homogenised. The soy powder product was orally administered. To measure the D/H ratio, the soy powder was first immersed in drinking water, to replace exchangeable OBD (Ex-OBD), which was not bound to carbon. After the second freeze-drying process, the D/H ratio was measured using a mass spectrometer (Iso Prime 100; Elementar, Langenselbold, Germany). Buried tritium is defined as the tritium in a large biomolecule that remains in the molecule after rinsing samples with tritium-free water, despite its exchangeable position in the molecule. A fraction of buried deuterium was considered to remain in soybean powder. […] Therefore, we considered that effect of the amount of buried deuterium on the measured D/H ratio of soy powder was negligible. The hydrogen content of the soybean powders (gH/gDW) was measured using a gas chromatograph (NCH-22F; Sumika Chemical Analysis Service, Oosaka, Japan). The OBD content of the soybean powders (gOBD/gDW) were calculated from their D/H ratio and hydrogen content, and are summarised in Table 7.
(§2) Urine and breath samples were periodically collected from days − 7 to 119, where the first day of the administration was defined as day 0. Urine samples were collected daily, when the volunteers rose in the morning, until day 28, then every two or three days until day 119. Additional samples were collected frequently, after administration. Urine samples were collected at every urination until bedtime, on days of administration. Breath samples were collected immediately prior to the administration, every 20 min from 12:30 to 17:10, and then hourly from 18:00 until bedtime.
(§3) Urine was distilled, and the condensed water was collected for the measurement of D/H ratio, using a mass spectrometer (Iso Prime 100; Elementar, Langenselbold, Germany). Breath samples were collected using an airtight bag. The samples were analysed within 3 days. After purifying the CO2 in the breath using a gas chromatograph (MAT GC; Thermo Electron, Waltham, MA, USA), the ^13C/^12C ratio was measured using a mass spectrometer (Dalta V Advantage; Thermo Electron, Waltham, MA, USA).
(§4) The increments were calculated of D/H and ^13C/^12C ratios above the background values measured for the samples before administration. The ratios were normalised to the same dosage (1 g D or ^13C per 70 kg body weight). When the D/H or ^13C/^12C ratios were below the limits (90% upper confidence limits of the background fluctuation), to cut off the data and any subsequent data were discarded.
(§5) A metabolic model was developed, for each volunteer. For volunteers in the glucose, alanine, palmitic acid, and soybean groups, the model structure of the OBD shown in Fig. 1 was adopted, while for volunteers in the D2O group, the model structure for HDO was adopted. For each model, parameters were determined using the least squares method, using Microsoft Excel version 2007. The detailed procedures have been described previously. […]

[4] = D/H ratios in urine after oral administration of D2O, HDO metabolic model fit; type: in vivo, human; settings: for mean half-life for the FWD compartment of the HDO models: mean and standard deviation; for Rr, recovery ratio to the administered deuterium / k1, transfer rate from OBD compartment to FWD compartment / k2, transfer rate from FWD compartment to OBD compartment / ka, transfer rate from DT compartment to FWD compartment / ke, excretion rate from FWD compartment: once orally
Procedure: as §1, §2, §3, §4, §5

[5] = parameters: method as in PMID 21947005; settings: once orally; individual volunteer; presumed value, no clear second component; from mean residence time of carbon in adipose tissue ref 41; cited from earlier work

In the case of `O=[14C]([O-])O.[Na+]` [^14C-bicarbonate], the “half-life of carbon dioxide” value [1] is listed as 5 min.
In the case of `CCCCC/C=C\C/C=C\CCCCCCCC(=O)O` [^13C-labelled linoleic acid], the “d1, ratio of organic compounds to inorganic compounds immediately after administration” value (“d1, ratio of organic compounds” for short) [2] is given as 0.29 ± 0.12 and the “reported ratio of unsaturated fatty acids (d1) by the 13C-labelled experiment” value [2] is given as 29 ± 12%.
In the case of `OC[C@H]1OC(O)[C@H](O)[C@@H](O)[C@@H]1O` (stereo partly drawn) [D-labelled glucose], the “ke, excretion rate from FWD compartment” value ([3]; once orally, all volunteers average) is reported as 0.073 day⁻¹, the “ke, excretion rate from FWD compartment” value ([3]; once orally, female average) is reported as 0.067 day⁻¹ and the “ke, excretion rate from FWD compartment” value ([3]; once orally, individual female volunteers) is reported as 0.072 d^−1 (2×) and 0.081 d^−1 and 0.057 d^−1 and 0.073 d^−1 and 0.049 d^−1. For the same molecule, the “ke, excretion rate from FWD compartment” value ([3]; once orally, individual male volunteers) was 0.085 d^−1 (2×) and 0.097 d^−1 and 0.050 d^−1 and 0.078 d^−1 and the “ke, excretion rate from FWD compartment” value ([3]; once orally, male average) was 0.079 day⁻¹.
In the case of `NCC(=O)O` [^13C-labelled glycine], the “d1, ratio of organic compounds” value [2] is listed as 0.29 ± 0.04.
In the case of `CCCCCCCC/C=C\CCCCCCCC(=O)O` [^13C-labelled oleic acid], the “d1, ratio of organic compounds” value [2] is listed as 0.35 ± 0.11 and the “reported ratio of unsaturated fatty acids (d1) by the 13C-labelled experiment” value [2] is listed as 35 ± 11%.
For `CCCCCCCCCCCCCCCC(=O)O` [D-labelled palmitic acid], the “ke, excretion rate from FWD compartment” value ([3]; palmitic acid group, orally once daily for four successive days, all volunteers average) was 0.070 day⁻¹, the “ke, excretion rate from FWD compartment” value ([3]; palmitic acid group, orally once daily for four successive days, female average) was 0.083 day⁻¹ and the “ke, excretion rate from FWD compartment” value ([3]; palmitic acid group, orally once daily for four successive days, individual female volunteers) was 0.059 day⁻¹ and 0.064 day⁻¹ and 0.11 day⁻¹ and 0.099 day⁻¹. The “ke, excretion rate from FWD compartment” value ([3]; palmitic acid group, orally once daily for four successive days, individual male volunteers) was 0.059 day⁻¹ and 0.055 day⁻¹ and 0.078 day⁻¹ and 0.063 day⁻¹ and 0.040 day⁻¹ and the “ke, excretion rate from FWD compartment” value ([3]; palmitic acid group, orally once daily for four successive days, male average) was 0.059 day⁻¹.
In the case of `N[C@@H](Cc1ccccc1)C(=O)O` [^13C-labelled phenylalanine], the “d1, ratio of organic compounds” value [2] is given as 0.25 ± 0.04.
In the case of `[2H]O[2H]` [D2O], the “mean half-life for the FWD compartment of the HDO models” value (from here on “mean half-life for the FWD compartment”) ([4]; combined group of volunteers) is reported as 240 ± 72 h, the “mean half-life for the FWD compartment” value ([4]; females (n = 6)) is reported as 240 ± 72 h and the “mean half-life for the FWD compartment” value ([4]; males (n = 3)) is reported as 240 ± 48 h. For the same molecule, the “Rr, recovery ratio to the administered deuterium” value (shortened to “Rr, recovery ratio”) ([4]; all volunteers average) was 0.93, the “k1, transfer rate from OBD compartment to FWD compartment” value (from here on “k1, transfer rate from OBD compartment”) ([4]; all volunteers average) was 0.010 day⁻¹ and the “k2, transfer rate from FWD compartment to OBD compartment” value (“k2, transfer rate from FWD compartment” for short) ([4]; all volunteers average) was 0.010 day⁻¹. The “ka, transfer rate from DT compartment to FWD compartment” value (“ka, transfer rate from DT compartment” for short) ([4]; all volunteers average) was 26 day⁻¹, the “ke, excretion rate from FWD compartment” value ([4]; all volunteers average) was 0.071 day⁻¹ and the “Rr, recovery ratio” value ([4]; female average) was 0.93. The “k1, transfer rate from OBD compartment” value ([4]; female average) was 0.011 day⁻¹, the “k2, transfer rate from FWD compartment” value ([4]; female average) was 0.013 day⁻¹ and the “ka, transfer rate from DT compartment” value ([4]; female average) was 28 day⁻¹. For the same molecule, the “ke, excretion rate from FWD compartment” value ([4]; female average) was 0.071 day⁻¹, the “Rr, recovery ratio” value ([4]; individual female volunteers) was 1.0 and 0.99 and 0.70 and 0.97 (2×) and 0.93 and the “k1, transfer rate from OBD compartment” value ([4]; individual female volunteers) was 0.0067 day⁻¹ and 0.0074 day⁻¹ and 0.019 day⁻¹. The “k2, transfer rate from FWD compartment” value ([4]; individual female volunteers) was 0.016 day⁻¹ and 0.010 day⁻¹, the “ka, transfer rate from DT compartment” value ([4]; individual female volunteers) was 8.9 day⁻¹ and 23 day⁻¹ and 92 day⁻¹ and 14 day⁻¹ and 6.4 day⁻¹ and 21 day⁻¹ and the “ke, excretion rate from FWD compartment” value ([4]; individual female volunteers) was 0.056 day⁻¹ and 0.098 day⁻¹ and 0.081 day⁻¹ and 0.043 day⁻¹ and 0.078 day⁻¹ and 0.072 day⁻¹. The “Rr, recovery ratio” value ([4]; individual male volunteers) was 0.91 and 1.0 and 0.92, the “k1, transfer rate from OBD compartment” value ([4]; individual male volunteers) was 0.0091 day⁻¹ and 0.0083 day⁻¹ and the “k2, transfer rate from FWD compartment” value ([4]; individual male volunteers) was 0.0092 day⁻¹ and 0.0065 day⁻¹. The “ka, transfer rate from DT compartment” value ([4]; individual male volunteers) was 39 day⁻¹ and 8.6 day⁻¹ and 21 day⁻¹, the “ke, excretion rate from FWD compartment” value ([4]; individual male volunteers) was 0.059 day⁻¹ and 0.063 day⁻¹ and 0.090 day⁻¹ and the “Rr, recovery ratio” value ([4]; male average) was 0.94. For the same molecule, the “k1, transfer rate from OBD compartment” value ([4]; male average) was 0.0087 day⁻¹, the “k2, transfer rate from FWD compartment” value ([4]; male average) was 0.0079 day⁻¹ and the “ka, transfer rate from DT compartment” value ([4]; male average) was 23 day⁻¹. The “ke, excretion rate from FWD compartment” value ([4]; male average) was 0.071 day⁻¹ and the “k2, transfer rate from FWD compartment” value [5] was 0.0017* d^−1.
